The source of these data is BindingDB's records for doi:10.1021/jm00041a005 (Agouron Pharmaceuticals, 1994).

The term Ki denotes a measure of affinity in units of concentration, obtained from inhibition or displacement. Read a low Ki as higher affinity.

This test deals with T1, Dimer of Gag-Pol polyprotein [489-587] (Human immunodeficiency virus 1, UniProt P12497).
T1 construct: 489-587
Put plainly: Protease Inhibition Assay. Particulars: pH 5.5; 37 °C. The procedure: Protease activity was measured by continuous chromogenic assay. The chromogenic peptide His-Lys-Ala-Arg-Val-Leu- (p-NO2-Phe)-Glu-Ala-Nleu-Ser (Bachem) was used as a substrate. Reactions were followed by the decrease of absorbance at 300 nm measured by spectrophotometer. Experimental results were analyzed by the nonlinear regression analysis, using a mathematical model for tight binding inhibitors.

Compound `C[C@H](N)C(=O)N[C@@H](C)C(=O)N[C@@H](Cc1ccccc1)[C@@H](O)CCC(=O)NC(c1ccccc1)c1nc2ccccc2[nH]1` (stereo partly drawn) [5-(L-Alanyl-L-alanylamino)-4-hydroxy-phenylhexanoic Acid ((1H-BenzimiaazOl-2-yl)phenylmethyl)amide] had a Ki of 5370 nM.

In the case of `NC(=O)C[C@H](NC(=O)c1ccc2ccccc2n1)C(=O)N[C@@H](Cc1ccccc1)[C@@H](O)CCC(=O)NC(c1cc2ccccc2[nH]1)C1CCCCC1` (stereo partly drawn) [(2S)-N-[(2S,3S)-5-{[cyclohexyl(1H-indol-2-yl)methyl]carbamoyl}-3-hydroxy-1-phenylpentan-2-yl]-2-(quinolin-2-ylformamido)butanediamide], the Ki amounted to 180 nM.

Regarding `Cc1cccc(C(NC(=O)CC[C@H](O)[C@H](Cc2ccccc2)NC(=O)[C@H](CC(N)=O)NC(=O)c2ccc3ccccc3n2)c2cc3ccccc3[nH]2)c1` (stereo partly drawn) [4-Hydroxy-5-((N-2-quinaloyl-L-asparagyl)amino)-6-phenylhexanoic Acid (a-(2-indolyl)-m-methylbenzyl)amide], the affinity corresponds to a Ki of 39 nM.

For the compound `NC(=O)C[C@H](NC(=O)c1ccc2ccccc2n1)C(=O)N[C@@H](Cc1ccccc1)[C@@H](O)CCC(=O)NC(c1ccccc1)c1cc2ccccc2[nH]1` (stereo partly drawn) [(2S)-N-[(2S,3S)-3-hydroxy-5-{[1H-indol-2-yl(phenyl)methyl]carbamoyl}-1-phenylpentan-2-yl]-2-(quinolin-2-ylformamido)butanediamide], the Ki is 43 nM.

`NC(=O)C[C@H](NC(=O)c1ccc2ccccc2n1)C(=O)N[C@@H](Cc1ccccc1)[C@@H](O)C[C@@H](Cc1ccccc1)C(=O)NC(c1ccccc1)c1cc2ccccc2[nH]1` (stereo partly drawn) [2 -Benzyl-4-h ydrox y-5((N -2-quinaloyl-L-asparagyl)amidno)-6-phenylhexanoic Acid (a-(2-indolylbenzyl)amide] returned a Ki of 1280 nM.

`NC(=O)C[C@H](NC(=O)c1ccc2ccccc2n1)C(=O)N[C@@H](Cc1ccccc1)[C@@H](O)CCC(=O)NC(c1cccc(C(F)(F)F)c1)c1cc2ccccc2[nH]1` (stereo partly drawn) [(2S)-N-[(2S,3S)-3-hydroxy-5-({1H-indol-2-yl[3-(trifluoromethyl)phenyl]methyl}carbamoyl)-1-phenylpentan-2-yl]-2-(quinolin-2-ylformamido)butanediamide] registered a Ki of 33 nM.

`NC(=O)C[C@H](NC(=O)c1ccc2ccccc2n1)C(=O)N[C@@H](Cc1ccccc1)[C@@H](O)CCC(=O)NC(c1ccccc1)c1nc2ccccc2[nH]1` (stereo partly drawn) [4-Hydroxy-5-( (N-2-quinaloyl-L-asparagyl)amino)-6-phenylhexanoic Acid (a-(2-benzyimidazolyl)benzyl)amide]: the Ki came out at 480 nM.

The compound `COC(=O)[C@@H](NC(=O)[C@@H](NC(=O)CC[C@H](O)[C@H](Cc1ccccc1)NC(=O)[C@H](C)NC(=O)[C@H](C)N)C(C)C)C(C)C` [methyl (2S)-2-[(2S)-2-[(4S,5S)-5-[(2S)-2-[(2S)-2-aminopropanamido]propanamido]-4-hydroxy-6-phenylhexanamido]-3-methylbutanamido]-3-methylbutanoate] registered a Ki of 18 nM.
